Test results: US20040072839A1, “1-Phenylalkylpiperazines” (priority 2002, published 2004)

What follows are compounds tested against T1, human 5-HT1A-serotonergic receptor (Homo sapiens, UniProt P08908) (assay: Radioligand binding to recombinant 5-HT1A receptors ([3H]8-OH-DPAT, HeLa cell membranes)). Conditions: 1 nM [3H]8-OH-DPAT; Ki from IC50 by Cheng & Prusoff; read-out: Ki, binding affinity for 5-HT1A receptors.
T1 construct: expressed in transfected cells; host or cells: HeLa (human), stably transfected; membrane preparation
T1 sequence (P08908 1-422): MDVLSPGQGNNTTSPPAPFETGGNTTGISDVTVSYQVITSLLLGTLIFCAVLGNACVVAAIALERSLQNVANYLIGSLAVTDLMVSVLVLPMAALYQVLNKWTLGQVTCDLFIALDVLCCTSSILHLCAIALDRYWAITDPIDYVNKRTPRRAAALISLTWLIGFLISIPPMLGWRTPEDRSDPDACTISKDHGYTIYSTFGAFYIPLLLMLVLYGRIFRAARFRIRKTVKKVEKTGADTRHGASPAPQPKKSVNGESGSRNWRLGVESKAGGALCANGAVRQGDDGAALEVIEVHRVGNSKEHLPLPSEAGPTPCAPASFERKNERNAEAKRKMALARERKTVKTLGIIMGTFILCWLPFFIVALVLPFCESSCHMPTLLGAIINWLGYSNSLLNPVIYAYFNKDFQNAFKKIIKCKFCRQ
Method: Genomic clone coding for the human 5-HT1A-serotonergic receptor was stably transfected in a human cell line (HeLa). HeLa cells were grown as monolayers in Dulbecco's modified Eagle medium (DMEM), containing 10% foetal bovine serum, gentamycin (0.1 mg/ml) and 5% carbon dioxide, at 37° C. The cells were detached from the growth flask at 95% confluence by a cell scraper and were lysed in cold 5 mM Tris and 5 mM EDTA buffer (pH 7.4). The homogenates were centrifuged at 40000×g×20 minutes and the pellets were resuspended in a small volume of cold 5 mM Tris and 5 mM EDTA buffer (pH 7.4) and immediately frozen and stored at −70° C. until use. On the day of experiment, the cell membranes were resuspended in incubation buffer: 50 mM Tris HCl (pH 7.4), 2.5 mM MgCl2, […] (Fargin et al., Nature 335, 358-360, 1988). The membranes were incubated in a final volume of 1 ml for 30 minutes at 30° C. with 1 nM [^3H]8-OH-DPAT, in the absence or presence of the test compounds. Non-specific binding was determined in the presence of 10 μM 5-HT. Incubation was stopped by addition of cold Tris-HC1 buffer and rapid filtration through a 0.2%-polyethyleneimine-pretreated Whatman-GF/B or Schleicher-&-Schuell-GF52 filter.
The affinities of the tested compounds were evaluated as inhibition of specific binding of the radioligand to 5-HT1A receptors (IC50) by using the non-linear curve-fitting program Allfit (De Lean et al., Am. J. Physiol. 235, E97-E102 (1978). The IC50 value was converted to an affinity constant (Ki) by the equation of Cheng & Prusoff (Cheng Y. C., Prusoff W. H., Biochem. Pharmacol. 22, 3099-3108 (1973)).

| Ki [nM] | SMILES |
| --- | --- |
| 0.401 | N#Cc1ccccc1[C@@H](CCN1CCN(c2cccc3c2OCCO3)CC1)[C@@H](O)C1CCCCC1 (racemic) [Example 14, (RS,SR)-1-[3-(2-Cyanophenyl)-4-cyclohexyl-4-hydroxybutyl]-4-[5-(2,3-dihydro-1,4-benzodioxinyl)]piperazine] |
| 0.72 | COC(=O)O[C@@H](C1CCCCC1)[C@H](CCN1CCN(c2ccccc2OC)CC1)c1ccccc1F (racemic) [Example 46, (RS,SR) 1-[4-Cyclohexyl-3-(2-fluorophenyl)-4-methoxycarbonyloxybutyl]-4-(2-methoxyphenyl)piperazine] |
| 1.45 | COC(C1CCCCC1)C(CCN1CCN(c2ccccc2OCC(F)(F)F)CC1)c1ccccc1F (stereo not shown) [Example 1, 1-[4-Cyclohexyl-3-(2-fluorophenyl)-4-methoxybutyl]-4-[2-(2,2,2-trifluoroethoxy)phenyl]piperazine] |
| 8.31 | CC(O)C(CCN1CCN(c2cccc3c2OCCO3)CC1)c1ccccc1OC(F)(F)F (stereo not shown) [Example 5, 1-[5-(2,3-Dihydro-1,4-benzodioxinyl)]-4-[4-hydroxy-3-(2-trifluoromethoxyphenyl)pentyl]piperazine] |
| 3.66 | CCC(O)C(CCN1CCN(c2cccc3c2OCCO3)CC1)c1ccccc1OC(F)(F)F (stereo not shown) [Example 6, 1-[5-(2,3-Dihydro-1,4-benzodioxinyl)]-4-[4-hydroxy-3-(2-trifluoromethoxyphenyl)hexyl]piperazine] |
| 7.27 | C=CC(O)C(CCN1CCN(c2cccc3c2OCCO3)CC1)c1ccccc1OC(F)(F)F (stereo not shown) [Example 7, 1-[5-(2,3-Dihydro-1,4-benzodioxinyl)]-4-[4-hydroxy-3-(2-trifluoromethoxyphenyl)hex-5-enyl]piperazine] |
| 1.9 | C=CC(OC)C(CCN1CCN(c2cccc3c2OCCO3)CC1)c1ccccc1OC(F)(F)F (stereo not shown) [Example 9, 1-[5-(2,3-Dihydro-1,4-benzodioxinyl)]-4-[4-methoxy-3-(2-trifluoromethoxyphenyl)-5-hexenyl]piperazine] |
| 1.68 | CCCC(OC)C(CCN1CCN(c2cccc3c2OCCO3)CC1)c1ccccc1 (stereo not shown) [Example 10, 1-[5-(2,3-Dihydro-1,4-benzodioxinyl)]-4-[(4-methoxy-3-phenyl)heptyl]piperazine] |
| 3.65 | COC(C)C(CCN1CCN(c2cccc3c2OCCO3)CC1)c1ccccc1 (stereo not shown) [Example 11, 1-[5-(2,3-Dihydro-1,4-benzodioxinyl)]-4-[(4-methoxy-3-phenyl)pentyl]piperazine] |
| 3.01 | CCCOC(CCC)C(CCN1CCN(c2cccc3c2OCCO3)CC1)c1ccccc1 (stereo not shown) [Example 12, 1-[5-(2,3-Dihydro-1,4-benzodioxinyl)]-4-[(4-propoxy-3-phenyl)heptyl]piperazine] |
| 0.53 | N#Cc1ccccc1C(CCN1CCN(c2cccc3c2OCCO3)CC1)C(=O)C1CCCCC1 (stereo not shown) [Example 13, 1-[3-(2-Cyanophenyl)-4-cyclohexyl-4-oxobutyl]-4-[5-(2,3-dihydro-1,4-benzodioxinyl)]piperazine] |
| 1.69 | COc1cc(F)ccc1N1CCN(CCC(C(=O)C2CCCCC2)c2ccccc2C#N)CC1 (stereo not shown) [Example 15, 1-[3-(2-Cyanophenyl)-4-cyclohexyl-4-oxobutyl]-4-(4-fluoro-2-methoxyphenyl)piperazine] |
| 0.64 | COC(C1CCCCC1)C(CCN1CCN(c2cccc3c2OCCO3)CC1)c1ccccc1 (stereo not shown) [Example 17, 1-(4-cyclohexyl-4-methoxy-3-phenylbutyl)-4-[5-(2,3-dihydro-1,4-benzodioxinyl)]piperazine] |
| 0.81 | COc1cc(F)ccc1N1CCN(CCC(c2ccccc2)C(OC)C2CCCCC2)CC1 (stereo not shown) [Example 18, 1-(4-Cyclohexyl-4-methoxy-3-phenylbutyl)-4-(4-fluoro-2-methoxyphenyl)piperazine] |
| 0.69 | CCOC(C1CCCCC1)C(CCN1CCN(c2cccc3c2OCCO3)CC1)c1ccccc1 (stereo not shown) [Example 19, 1-(4-Cyclohexyl-4-ethoxy-3-phenylbutyl)-4-[5-(2,3-dihydro-1,4-benzodioxinyl)]piperazine] |
| 3.19 | CCOC(C1CCCCC1)C(CCN1CCN(c2ccc(F)cc2OC)CC1)c1ccccc1 (stereo not shown) [Example 20, 1-(4-Cyclohexyl-4-ethoxy-3-phenylbutyl)-4-(4-fluoro-2-methoxyphenyl)piperazine] |

| Ki [nM] | SMILES |
| --- | --- |
| 0.77 | C=CCOC(C1CCCCC1)C(CCN1CCN(c2cccc3c2OCCO3)CC1)c1ccccc1 (stereo not shown) [Example 21, 1-(4-Allyloxy-4-cyclohexyl-3-phenylbutyl)-4-[5-(2,3-dihydro-1,4-benzodioxinyl)]piperazine] |
| 2.03 | C=CCOC(C1CCCCC1)C(CCN1CCN(c2ccc(F)cc2OC)CC1)c1ccccc1 (stereo not shown) [Example 22, 1-(4-Allyloxy-4-cyclohexyl-3-phenylbutyl)-4-(4-fluoro-2-methoxyphenyl)piperazine] |
| 0.63 | C#CCOC(C1CCCCC1)C(CCN1CCN(c2cccc3c2OCCO3)CC1)c1ccccc1 (stereo not shown) [Example 23, 1-(4-Cyclohexyl-3-phenyl-4-propargyloxybutyl)-4-[5-(2,3-dihydro-1,4-benzodioxinyl)]piperazine] |
| 0.64 | C#CCOC(C1CCCCC1)C(CCN1CCN(c2ccc(F)cc2OC)CC1)c1ccccc1 (stereo not shown) [Example 24, 1-(4-Cyclohexyl-3-phenyl-4-propargyloxybutyl)-4-(4-fluoro-2-methoxyphenyl)piperazine] |
| 1.18 | CCCOC(C1CCCCC1)C(CCN1CCN(c2cccc3c2OCCO3)CC1)c1ccccc1 (stereo not shown) [Example 25, 1-(4-Cyclohexyl-3-phenyl-4-propoxybutyl)-4-[5-(2,3-dihydro-1,4-benzodioxinyl)]piperazine] |
| 2.62 | CCC(O)C(CCN1CCN(c2cccc3c2OCCO3)CC1)c1ccccc1 (stereo not shown) [Example 26, 1-[5-(2,3-Dihydro-1,4-benzodioxinyl)]-4-(4-hydroxy-3-phenyl)hexylpiperazine] |
| 1.09 | CCCC(O)C(CCN1CCN(c2cccc3c2OCCO3)CC1)c1ccccc1 (stereo not shown) [Example 27] |
| 2.92 | C=CC(O)C(CCN1CCN(c2cccc3c2OCCO3)CC1)c1ccccc1 (stereo not shown) [Example 28, 1-[5-(2,3-Dihydro-1,4-benzodioxinyl)]-4-(4-hydroxy-3-phenylhex-5-enyl]piperazine] |
| 1.08 | CC(C)C(O)C(CCN1CCN(c2cccc3c2OCCO3)CC1)c1ccccc1 (stereo not shown) [Example 29] |
| 5.43 | CC(O)C(CCN1CCN(c2cccc3c2OCCO3)CC1)c1ccccc1 (stereo not shown) [Example 30] |
| 3.57 | CC=CC(O)C(CCN1CCN(c2cccc3c2OCCO3)CC1)c1ccccc1 (stereo not shown) [Example 32, 1-[5-(2,3-Dihydro-1,4-benzodioxinyl)]-4-(4-hydroxy-3-phenylhept-5-enyl)piperazine] |
| 5.03 | C#CC(O)C(CCN1CCN(c2cccc3c2OCCO3)CC1)c1ccccc1 (stereo not shown) [Example 33, 1-[5-(2,3-Dihydro-1,4-benzodioxinyl)]-4-(4-hydroxy-3-phenylhex-5-ynyl)piperazine] |
| 1.67 | C=CCC(O)C(CCN1CCN(c2cccc3c2OCCO3)CC1)c1ccccc1 (stereo not shown) [Example 34, 1-[5-(2,3-Dihydro-1,4-benzodioxinyl)]-4-(4-hydroxy-3-phenylhept-6-enyl)piperazine] |
| 1.47 | CC(C)=CC(O)C(CCN1CCN(c2cccc3c2OCCO3)CC1)c1ccccc1 (stereo not shown) [Example 35, 1-[5-(2,3-Dihydro-1,4-benzodioxinyl)]-4-(4-hydroxy-6-methyl-3-phenylhept-5-enyl)piperazine] |
| 0.56 | CC(C)CC(O)C(CCN1CCN(c2cccc3c2OCCO3)CC1)c1ccccc1 (stereo not shown) [Example 36] |
| 5.03 | OCC(CCN1CCN(c2cccc3c2OCCO3)CC1)c1ccccc1 (stereo not shown) [Example 37, 1-[5-(2,3-dihydro-1,4-benzodioxinyl)]-4-(4-hydroxy-3-phenylbutyl]piperazine] |

| SMILES | Ki [nM] |
| --- | --- |
| N#Cc1ccccc1C(CCN1CCN(c2cccc3c2OCCO3)CC1)C(O)C1CCCCC1 (racemic) [Example 14a, (RS)-1-[3-(2-Cyanophenyl)-4-cyclohexyl-4-hydroxybutyl]-4-[5-(2,3-dihydro-1,4-benzodioxinyl)]piperazine] | 0.878 |
| N#Cc1ccccc1C(CCN1CCN(c2cccc3c2OCCO3)CC1)C(O)C1CCCCC1 (racemic) [Example 14b, (SR)-1-[3-(2-Cyanophenyl)-4-cyclohexyl-4-hydroxybutyl]-4-[5-(2,3-dihydro-1,4-benzodioxinyl)]piperazine] | 0.965 |
